Laboratory results published in PubChem BioAssay (NCI).
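Grown in 96-well plates, cells were treated for 48 hours with each compound at five concentrations. Insufficient inhibition: endpoint recorded as highest concentration tested. TGI: total growth inhibition.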

What was measured:
Assay in all cases: DTP human tumour cell line panel, 48 h
A549 NSCLC = tested on: A549 NSCLC
M19-MEL melanoma = tested on: M19-MEL melanoma
NCI-H460 lung = tested on: NCI-H460 lung
DLD-1 colon = tested on: DLD-1 colon
CAKI-1 renal = tested on: CAKI-1 renal
COLO 205 colon = tested on: COLO 205 colon
DMS 273 small cell lung = tested on: DMS 273 small cell lung
SNB-19 CNS = tested on: SNB-19 CNS
786-0 renal = tested on: 786-0 renal
MALME-3M melanoma = tested on: MALME-3M melanoma
MOLT-4 leukemia = tested on: MOLT-4 leukemia
OVCAR-8 ovarian = tested on: OVCAR-8 ovarian
RXF 393 renal = tested on: RXF 393 renal
KM20L2 colon = tested on: KM20L2 colon
HCC-2998 colon = tested on: HCC-2998 colon
SNB-78 CNS = tested on: SNB-78 CNS
ACHN renal = tested on: ACHN renal
SF-268 CNS = tested on: SF-268 CNS
OVCAR-4 ovarian = tested on: OVCAR-4 ovarian
HCT-15 colon = tested on: HCT-15 colon
LXFL 529 NSCLC = tested on: LXFL 529 NSCLC
SN12C renal = tested on: SN12C renal
CCRF-CEM leukemia = tested on: CCRF-CEM leukemia
UACC-62 melanoma = tested on: UACC-62 melanoma
IGROV1 ovarian = tested on: IGROV1 ovarian
EKVX NSCLC = tested on: EKVX NSCLC
NCI-H522 lung = tested on: NCI-H522 lung
RPMI-8226 leukemia = tested on: RPMI-8226 leukemia
SK-MEL-5 melanoma = tested on: SK-MEL-5 melanoma
K-562 leukemia = tested on: K-562 leukemia
UO-31 renal = tested on: UO-31 renal
NCI-H23 lung = tested on: NCI-H23 lung
UACC-257 melanoma = tested on: UACC-257 melanoma
OVCAR-5 ovarian = tested on: OVCAR-5 ovarian
SK-OV-3 ovarian = tested on: SK-OV-3 ovarian
LOX IMVI melanoma = tested on: LOX IMVI melanoma
KM12 colon = tested on: KM12 colon
XF 498 CNS = tested on: XF 498 CNS
SW-620 colon = tested on: SW-620 colon
SF-295 CNS = tested on: SF-295 CNS
OVCAR-3 ovarian = tested on: OVCAR-3 ovarian
HL-60(TB) leukemia = tested on: HL-60(TB) leukemia
SNB-75 CNS = tested on: SNB-75 CNS
M14 melanoma = tested on: M14 melanoma
HOP-62 NSCLC = tested on: HOP-62 NSCLC
DMS 114 small cell lung = tested on: DMS 114 small cell lung
SK-MEL-2 melanoma = tested on: SK-MEL-2 melanoma
HOP-92 NSCLC = tested on: HOP-92 NSCLC
TK-10 renal = tested on: TK-10 renal
SK-MEL-28 melanoma = tested on: SK-MEL-28 melanoma
U251 CNS = tested on: U251 CNS
HCT-116 colon = tested on: HCT-116 colon
HT29 colon = tested on: HT29 colon
SF-539 CNS = tested on: SF-539 CNS
HOP-18 NSCLC = tested on: HOP-18 NSCLC
SR leukemia = tested on: SR leukemia
A498 renal = tested on: A498 renal
BT-549 breast = tested on: BT-549 breast
MDA-MB-435 = tested on: MDA-MB-435
T-47D breast = tested on: T-47D breast
NCI/ADR-RES ovarian = tested on: NCI/ADR-RES ovarian
MCF7 breast = tested on: MCF7 breast
NCI-H226 lung = tested on: NCI-H226 lung
MDA-MB-231 breast = tested on: MDA-MB-231 breast
DU-145 prostate = tested on: DU-145 prostate
PC-3 prostate = tested on: PC-3 prostate
MDA-N = tested on: MDA-N
HS 578T breast = tested on: HS 578T breast

CN1CCN(c2nc(N)c(Br)c(Cl)n2)CC1
TGI (A549 NSCLC): > 100 µM | TGI (M19-MEL melanoma): > 100 µM | TGI (NCI-H460 lung): > 100 µM | TGI (DLD-1 colon): > 100 µM | TGI (CAKI-1 renal): > 100 µM | TGI (COLO 205 colon): > 100 µM | TGI (DMS 273 small cell lung): > 100 µM | TGI (SNB-19 CNS): > 100 µM | TGI (786-0 renal): > 100 µM | TGI (MALME-3M melanoma): > 100 µM | TGI (MOLT-4 leukemia): > 100 µM | TGI (OVCAR-8 ovarian): > 100 µM | TGI (RXF 393 renal): > 100 µM | TGI (KM20L2 colon): > 100 µM | TGI (HCC-2998 colon): > 100 µM | TGI (SNB-78 CNS): > 100 µM | TGI (ACHN renal): > 100 µM | TGI (SF-268 CNS): > 100 µM | TGI (OVCAR-4 ovarian): > 100 µM | TGI (HCT-15 colon): > 100 µM | TGI (LXFL 529 NSCLC): > 100 µM | TGI (SN12C renal): > 100 µM | TGI (CCRF-CEM leukemia): > 100 µM | TGI (UACC-62 melanoma): > 100 µM | TGI (IGROV1 ovarian): > 100 µM | TGI (EKVX NSCLC): > 100 µM | TGI (NCI-H522 lung): > 100 µM | TGI (RPMI-8226 leukemia): > 100 µM | TGI (SK-MEL-5 melanoma): > 100 µM | TGI (K-562 leukemia): > 100 µM | TGI (UO-31 renal): > 100 µM | TGI (NCI-H23 lung): > 100 µM | TGI (UACC-257 melanoma): > 100 µM | TGI (OVCAR-5 ovarian): > 100 µM | TGI (SK-OV-3 ovarian): > 100 µM | TGI (LOX IMVI melanoma): > 100 µM | TGI (KM12 colon): > 100 µM | TGI (XF 498 CNS): > 100 µM | TGI (SW-620 colon): > 100 µM | TGI (SF-295 CNS): > 100 µM | TGI (OVCAR-3 ovarian): > 100 µM | TGI (HL-60(TB) leukemia): > 100 µM | TGI (SNB-75 CNS): > 100 µM | TGI (M14 melanoma): > 100 µM | TGI (HOP-62 NSCLC): > 100 µM | TGI (DMS 114 small cell lung): > 100 µM | TGI (SK-MEL-2 melanoma): > 100 µM | TGI (HOP-92 NSCLC): > 100 µM | TGI (TK-10 renal): > 100 µM | TGI (SK-MEL-28 melanoma): > 100 µM

O=C(CCc1ccccc1)CC1OC(=O)C(Cl)=C1Cl (stereo not drawn)
TGI (A549 NSCLC): > 100 µM | TGI (M19-MEL melanoma): 33.8 µM | TGI (NCI-H460 lung): 96.2 µM | TGI (U251 CNS): 30.4 µM | TGI (DLD-1 colon): 32.8 µM | TGI (CAKI-1 renal): 59.1 µM | TGI (COLO 205 colon): 30.9 µM | TGI (DMS 273 small cell lung): 44 µM | TGI (SNB-19 CNS): 38 µM | TGI (786-0 renal): 37.5 µM | TGI (MALME-3M melanoma): 33.1 µM | TGI (MOLT-4 leukemia): > 100 µM | TGI (OVCAR-8 ovarian): 41 µM | TGI (RXF 393 renal): 59.8 µM | TGI (KM20L2 colon): 26.5 µM | TGI (HCC-2998 colon): 32.6 µM | TGI (SNB-78 CNS): > 100 µM | TGI (ACHN renal): 38.6 µM | TGI (HCT-116 colon): 28 µM | TGI (SF-268 CNS): 79.9 µM | TGI (OVCAR-4 ovarian): > 100 µM | TGI (HT29 colon): 58.2 µM | TGI (HCT-15 colon): 30.3 µM | TGI (LXFL 529 NSCLC): 29.4 µM | TGI (SF-539 CNS): 76.7 µM | TGI (HOP-18 NSCLC): 59.6 µM | TGI (SN12C renal): 38.3 µM | TGI (CCRF-CEM leukemia): > 100 µM | TGI (UACC-62 melanoma): 31.7 µM | TGI (IGROV1 ovarian): 40.8 µM | TGI (EKVX NSCLC): 66.1 µM | TGI (NCI-H522 lung): 28.5 µM | TGI (RPMI-8226 leukemia): > 100 µM | TGI (SK-MEL-5 melanoma): 47 µM | TGI (K-562 leukemia): 88 µM | TGI (UO-31 renal): 34 µM | TGI (NCI-H23 lung): 53.4 µM | TGI (SR leukemia): > 100 µM | TGI (UACC-257 melanoma): 41.1 µM | TGI (OVCAR-5 ovarian): 35 µM | TGI (SK-OV-3 ovarian): > 100 µM | TGI (LOX IMVI melanoma): 40.2 µM | TGI (KM12 colon): 33.8 µM | TGI (XF 498 CNS): 41.4 µM | TGI (A498 renal): 66.2 µM | TGI (SW-620 colon): 25.1 µM | TGI (SF-295 CNS): 87.4 µM | TGI (OVCAR-3 ovarian): 38.1 µM | TGI (SNB-75 CNS): > 100 µM | TGI (M14 melanoma): 31 µM | TGI (HOP-62 NSCLC): 55.6 µM | TGI (SK-MEL-2 melanoma): 36.1 µM | TGI (HOP-92 NSCLC): 41.1 µM | TGI (TK-10 renal): 57.7 µM | TGI (SK-MEL-28 melanoma): 32.9 µM

NC(=S)N1N=C2c3ccccc3CCC[C@H]2[C@@H]1c1ccccc1
TGI (A549 NSCLC): > 53.7 µM | TGI (M19-MEL melanoma): > 100 µM | TGI (NCI-H460 lung): 12.1 µM | TGI (U251 CNS): 17.7 µM | TGI (DLD-1 colon): 25.7 µM | TGI (COLO 205 colon): 6.32 µM | TGI (BT-549 breast): 19.7 µM | TGI (DMS 273 small cell lung): 11.3 µM | TGI (SNB-19 CNS): 25.2 µM | TGI (786-0 renal): 21.8 µM | TGI (MDA-MB-435): 0.326 µM | TGI (MALME-3M melanoma): 21.5 µM | TGI (MOLT-4 leukemia): 18.9 µM | TGI (OVCAR-8 ovarian): 17.4 µM | TGI (RXF 393 renal): 6.68 µM | TGI (KM20L2 colon): 5.22 µM | TGI (HCC-2998 colon): 14 µM | TGI (SNB-78 CNS): 61.9 µM | TGI (ACHN renal): 30.6 µM | TGI (HCT-116 colon): 12.7 µM | TGI (T-47D breast): 29.1 µM | TGI (SF-268 CNS): 39.4 µM | TGI (OVCAR-4 ovarian): 23.2 µM | TGI (HT29 colon): 6.18 µM | TGI (HCT-15 colon): 26.2 µM | TGI (NCI/ADR-RES ovarian): 3 µM | TGI (MCF7 breast): 25.3 µM | TGI (LXFL 529 NSCLC): 18.2 µM | TGI (SF-539 CNS): 2.61 µM | TGI (NCI-H226 lung): 11.1 µM | TGI (SN12C renal): 19.7 µM | TGI (CCRF-CEM leukemia): 24.3 µM | TGI (MDA-MB-231 breast): 17.1 µM | TGI (IGROV1 ovarian): 25 µM | TGI (EKVX NSCLC): 70.2 µM | TGI (NCI-H522 lung): 1.42 µM | TGI (DU-145 prostate): 9.27 µM | TGI (RPMI-8226 leukemia): 17.2 µM | TGI (SK-MEL-5 melanoma): 8.93 µM | TGI (K-562 leukemia): > 37.9 µM | TGI (UO-31 renal): 15.8 µM | TGI (NCI-H23 lung): 27.8 µM | TGI (SR leukemia): > 32.9 µM | TGI (UACC-257 melanoma): 25.7 µM | TGI (OVCAR-5 ovarian): 55.5 µM | TGI (SK-OV-3 ovarian): 2.77 µM | TGI (LOX IMVI melanoma): 16.4 µM | TGI (PC-3 prostate): 18.3 µM | TGI (KM12 colon): 18.3 µM | TGI (XF 498 CNS): 16.5 µM | TGI (A498 renal): 23.3 µM | TGI (SW-620 colon): 15.3 µM | TGI (MDA-N): 0.279 µM | TGI (SF-295 CNS): 10.6 µM | TGI (OVCAR-3 ovarian): 1.94 µM | TGI (SNB-75 CNS): 0.9 µM | TGI (M14 melanoma): 10.1 µM | TGI (HS 578T breast): 17.4 µM | TGI (HOP-62 NSCLC): 19.2 µM | TGI (DMS 114 small cell lung): 50.8 µM | TGI (SK-MEL-2 melanoma): 5.94 µM | TGI (TK-10 renal): 52 µM | TGI (SK-MEL-28 melanoma): 32.6 µM
